Experimental data as given in patent US20240246946A1, “MODULATORS OF TREX1” (Constellation Pharmaceuticals, Inc., priority 2021, published 2024).

Legend:
[1] = biological target: T1, full length human TREX1 (Homo sapiens, UniProt Q9NSU2); assay: hTREX1 Biochemical Assay (fluorescence, dsDNA substrate degradation); settings: biochemical, read-out: hTREX1 IC50
T1 construct: N-terminally His-Tev tagged full length human TREX1; made in house; host or cells: E. coli
T1 sequence (Q9NSU2 1-314): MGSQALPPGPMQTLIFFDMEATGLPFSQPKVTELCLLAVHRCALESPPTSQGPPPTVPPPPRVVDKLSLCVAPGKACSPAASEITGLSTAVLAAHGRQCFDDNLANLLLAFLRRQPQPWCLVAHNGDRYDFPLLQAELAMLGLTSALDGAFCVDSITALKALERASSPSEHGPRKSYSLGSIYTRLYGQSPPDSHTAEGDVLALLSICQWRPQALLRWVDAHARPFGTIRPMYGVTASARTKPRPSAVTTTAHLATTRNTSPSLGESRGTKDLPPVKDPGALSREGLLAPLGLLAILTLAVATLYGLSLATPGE
Procedure, shortened: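 Cleavage of 60 nM TEX615/quencher-labelled dsDNA in pH 7.4 Tris buffer with 5 mM MgCl2, 1.0% DMSO, run 18 hours at 25° C, EDTA-quenched; fluorescence read-out.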

[2] = biological target: T2, full length mouse TREX1 (Mus musculus, UniProt Q91XB0); assay: mTREX1 Biochemical Assay (fluorescence, dsDNA substrate degradation); settings: biochemical, read-out: mTREX1 IC50
T2 construct: N-terminally His-Tev tagged full length mouse TREX1; made in house; host or cells: E. coli
T2 sequence (Q91XB0 1-314): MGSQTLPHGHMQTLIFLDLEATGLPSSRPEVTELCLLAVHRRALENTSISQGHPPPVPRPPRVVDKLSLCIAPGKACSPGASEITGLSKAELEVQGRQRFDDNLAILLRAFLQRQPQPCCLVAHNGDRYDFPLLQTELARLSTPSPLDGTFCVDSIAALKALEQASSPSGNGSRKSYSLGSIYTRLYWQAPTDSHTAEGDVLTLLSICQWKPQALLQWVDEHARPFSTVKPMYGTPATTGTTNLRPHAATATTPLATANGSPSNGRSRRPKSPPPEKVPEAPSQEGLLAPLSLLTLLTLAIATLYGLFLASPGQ
Procedure, shortened: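 Reaction run 18 h at 25° C. with 60 nM TEX615/quencher-labelled dsDNA and 6 pM mouse TREX1 in Tris buffer (pH 7.4, 5 mM MgCl2, 1.0% DMSO), enzyme having sat 4 h with compound across 10 concentrations. EDTA quench; substrate degradation measured as fluorescence increase.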

[3] = biological target: T3, human TREX2 (residues M44-A279) (Homo sapiens, UniProt Q9BQ50); assay: hTREX2 Biochemical Assay (fluorescence, dsDNA substrate degradation); settings: biochemical selectivity for hTREX1 vs hTREX2
T3 construct: human TREX2 (residues M44-A279, expressed in E. coli); made in house; host or cells: E. coli
T3 sequence (Q9BQ50 44-279 isoform Q9BQ50-1): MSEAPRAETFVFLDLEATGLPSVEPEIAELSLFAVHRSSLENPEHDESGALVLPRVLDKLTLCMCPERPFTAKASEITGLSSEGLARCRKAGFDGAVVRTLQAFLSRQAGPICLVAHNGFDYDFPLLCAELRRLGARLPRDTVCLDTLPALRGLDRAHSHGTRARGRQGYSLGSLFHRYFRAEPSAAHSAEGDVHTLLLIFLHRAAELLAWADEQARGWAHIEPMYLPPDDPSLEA
Description: Degradation of the dsDNA liberates free fluorophore to produce a fluorescent signal. Specifically, 7.5 μL of N-terminally His-Tev tagged human TREX2 (residues M44-A279, expressed in E. coli and purified in house) in reaction buffer (50 mM Tris, 150 mM NaCl, 2 mM DTT, 0.1 mg/mL BSA, 0.01% (w/v) Tween-20, 5 mM MgCl2, pH 7.4) was added to a 384-well Black ProxiPlate Plus (PerkinElmer) which already contained compound (150 nL) at varying concentrations as a 10 point dose-response in DMSO. The plate was incubated at 25° C. for 4 hours. Reactions were initiated by adding 7.5 μL of dsDNA substrate (Strand A: 5′ TEX615/GCT AGG CAG 3′; Strand B: 5′ CTG CCT AGC/IAbRQSp (IDT)) in reaction buffer. Final concentrations were 50 pM TREX2, 60 nM dsDNA substrate in reaction buffer with 1.0% DMSO (v/v). After 18 hours at 25° C., reactions were quenched by the addition of 2 μL of 500 mM EDTA. Final concentrations in the quenched reaction mixture were 44 pM TREX2, 53 nM DNA and 59 mM EDTA in a volume of 17 μL. After a 5-minute incubation at room temperature, plates were read in an EnVision plate reader (PerkinElmer) measuring fluorescence at 615 nm following excitation w/570 nm light.

| Compound | IC50 [1] [nM] | IC50 [2] [nM] | hTREX1 vs hTREX2 selectivity [3] |
| --- | --- | --- | --- |
| CC(c1nc(C(=O)Nc2cnoc2)c(O)c(=O)n1C)C(c1cn[nH]c1)c1ccccc1C#N (single isomer, unassigned) [Example 12 D1E2] | > 10 | > 10 | B (B = 25 to 50-fold selective for hTREX1) |
| CCn1cc(C(c2ccccc2C#N)C(C)c2nc(C(=O)Nc3cnoc3)c(O)c(=O)n2C)cn1 (single isomer, unassigned) [Example 13 D1E2] | > 10 | > 10 | B (B = 25 to 50-fold selective for hTREX1) |
| CC(c1nc(C(=O)Nc2cnoc2)c(O)c(=O)n1C)C(c1cnn(C)c1)c1cc(F)ccc1C#N (single isomer, unassigned) [Example 14 D2E1] | > 10 | > 10 | A (A = <25 fold selective for hTREX1) |
| CC(c1nc(C(=O)Nc2cnoc2)c(O)c(=O)n1C)C(c1cnn(C)c1)c1ccc(F)cc1C#N (single isomer, unassigned) [Example 15 D2E1] | > 10 | > 10 | B (B = 25 to 50-fold selective for hTREX1) |
| CCn1cc(C(c2cc(F)ccc2C#N)C(C)c2nc(C(=O)Nc3cnoc3)c(O)c(=O)n2C)cn1 (single isomer, unassigned) [Example 17 D2E1] | > 10 | > 10 | B (B = 25 to 50-fold selective for hTREX1) |
| CC(c1nc(C(=O)Nc2cnoc2)c(O)c(=O)n1C)C(c1cnn(CCN2CCOCC2)c1)c1ccccc1C#N (single isomer, unassigned) [Example 20 D2E1] | > 10 | > 10 | B (B = 25 to 50-fold selective for hTREX1) |
| CC(c1nc(C(=O)Nc2cnoc2)c(O)c(=O)n1C)C(c1cnn(CCN2CCN(C(=O)OC(C)(C)C)CC2)c1)c1ccccc1C#N (single isomer, unassigned) [Example 21 D2E1] | > 10 | > 10 | B (B = 25 to 50-fold selective for hTREX1) |
| CC(c1nc(C(=O)Nc2cnoc2)c(O)c(=O)n1C)C(c1cnn(CC(F)(F)F)c1)c1ccccc1C#N (single isomer, unassigned) [Example 22 D2E1] | > 10 | > 10 | B (B = 25 to 50-fold selective for hTREX1) |
| CC(c1nc(C(=O)Nc2cnoc2)c(O)c(=O)n1C)C(c1cnn(C)c1)c1cc(Cl)ccc1C#N (single isomer, unassigned) [Example 26 D2E1] | > 10 | > 10 | B (B = 25 to 50-fold selective for hTREX1) |
| CC(c1nc(C(=O)Nc2cnoc2)c(O)c(=O)n1C)C(c1cnn(C)c1)c1ccc(Cl)cc1C#N (single isomer, unassigned) [Example 27 D1E2] | > 10 | > 10 | C (C = >50 fold selective for hTREX1) |
| CC(c1nc(C(=O)Nc2cnoc2)c(O)c(=O)n1C)C(c1cnn(CCN2CCN(C)CC2)c1)c1ccccc1C#N (single isomer, unassigned) [Example 32 D2E1] | > 10 | > 10 | C (C = >50 fold selective for hTREX1) |
| CC(c1nc(C(=O)Nc2cnoc2)c(O)c(=O)n1C)C(c1cnn(CC(C)(C)O)c1)c1ccccc1C#N (single isomer, unassigned) [Example 36 D2E1] | > 10 | > 10 | B (B = 25 to 50-fold selective for hTREX1) |
| Cn1cc(C(c2ccccc2C#N)C(c2nc(C(=O)Nc3cnoc3)c(O)c(=O)n2C)C(F)(F)F)cn1 (single isomer, unassigned) [Example 40 D2E2] | > 10 | > 10 | B (B = 25 to 50-fold selective for hTREX1) |
| Cc1nn(C)cc1C(c1cc(F)ccc1C#N)C(c1nc(C(=O)Nc2cnoc2)c(O)c(=O)n1C)C(F)(F)F (single isomer, unassigned) [Example 42 D2E1] | 1 to 10 | > 10 | B (B = 25 to 50-fold selective for hTREX1) |

Now from value to compound:

| IC50 [1] [nM] | IC50 [2] [nM] | hTREX1 vs hTREX2 selectivity [3] | Compound |
| --- | --- | --- | --- |
| > 10 | > 10 | C (C = >50 fold selective for hTREX1) | CC(c1nc(C(=O)Nc2cnoc2)c(O)c(=O)n1C)C(c1cnn(CCCN(C)C)c1)c1ccccc1C#N (single isomer, unassigned) [Example 34 D2E1] |
| 1 to 10 | > 10 | C (C = >50 fold selective for hTREX1) | CC(c1nc(C(=O)Nc2cnoc2)c(O)c(=O)n1C)C(c1cn(C)cn1)c1ccccc1C#N (single isomer, unassigned) [Example 39 D2E2] |
| > 10 | > 10 | A (A = <25 fold selective for hTREX1) | Cc1ncc(C(c2ccccc2Cl)C(C)c2nc(C(=O)Nc3cnoc3)c(O)c(=O)n2C)cn1 (single isomer, unassigned) [Example 44 D1E1] |
| > 10 | > 10 | A (A = <25 fold selective for hTREX1) | Cc1ncc(C(c2ccccc2Cl)C(C)c2nc(C(=O)Nc3cnoc3)c(O)c(=O)n2C)cn1 (single isomer, unassigned) [Example 44 D2E2] |
| > 10 | > 10 | A (A = <25 fold selective for hTREX1) | CC(c1nc(C(=O)Nc2cnoc2)c(O)c(=O)n1C)C(c1ccccc1Cl)n1cccn1 (single isomer, unassigned) [Example 45 D1E2] |
| > 10 | > 10 | C (C = >50 fold selective for hTREX1) | CC(c1nc(C(=O)Nc2cnoc2)c(O)c(=O)n1C)C(c1cocn1)c1ccccc1C#N (single isomer, unassigned) [Example 50 D2E1] |
| < 1 | < 1 | C (C = >50 fold selective for hTREX1) | CCn1cc(C(c2ccc(F)cc2C#N)C(C)c2nc(C(=O)Nc3cnoc3)c(O)c(=O)n2C)c(C)n1 (single isomer, unassigned) [Example 55 D1E1] |
| 1 to 10 | > 10 | C (C = >50 fold selective for hTREX1) | CCn1cc(C(c2ccc(F)cc2C#N)C(C)c2nc(C(=O)Nc3cnoc3)c(O)c(=O)n2C)c(C)n1 (single isomer, unassigned) [Example 55 D2E2] |
| < 1 | < 1 | C (C = >50 fold selective for hTREX1) | Cc1nn(C)cc1C(c1ccc(F)cc1C#N)C(C)c1nc(C(=O)Nc2cnoc2)c(O)c(=O)n1C (single isomer, unassigned) [Example 56 D1E1] |
| 1 to 10 | > 10 | C (C = >50 fold selective for hTREX1) | Cc1nn(C)cc1C(c1cc(F)ccc1C#N)C(C)c1nc(C(=O)Nc2cnoc2)c(O)c(=O)n1C (single isomer, unassigned) [Example 57 D2E1] |
| 1 to 10 | > 10 | A (A = <25 fold selective for hTREX1) | CCn1cc(C(c2cc(F)ccc2Cl)C(C)c2nc(C(=O)Nc3cnoc3)c(O)c(=O)n2C)cn1 (single isomer, unassigned) [Example 60 D1E2] |
